% of inhibition, % of control and % activity data for six compounds are collected here from ChEMBL document CHEMBL5465560, “Selectivity Literature for EUbOPEN Chemogenomic Library” (2024).

The target in experiment [1] is [Pyruvate dehydrogenase (acetyl-transferring)] kinase isozyme 1, mitochondrial (Homo sapiens, UniProt Q15118). The experiment is described as follows: Selectivity interaction (Upstate Kinase Profiler service (Millipore)) EUB0000056c PDK1. Particulars: at 1 µM.
Experiment [2] deals with Proto-oncogene tyrosine-protein kinase Src (Homo sapiens, UniProt P12931). As to the kind of experiment: Selectivity interaction (Ambit KINOMEscan and KiNATiv profiling in Jurkat cells) EUB0000090b SRC. It counts as cell-based. Particulars: at 1 µM.
Chain of Proto-oncogene tyrosine-protein kinase Src (P12931 2-536 limits assumed): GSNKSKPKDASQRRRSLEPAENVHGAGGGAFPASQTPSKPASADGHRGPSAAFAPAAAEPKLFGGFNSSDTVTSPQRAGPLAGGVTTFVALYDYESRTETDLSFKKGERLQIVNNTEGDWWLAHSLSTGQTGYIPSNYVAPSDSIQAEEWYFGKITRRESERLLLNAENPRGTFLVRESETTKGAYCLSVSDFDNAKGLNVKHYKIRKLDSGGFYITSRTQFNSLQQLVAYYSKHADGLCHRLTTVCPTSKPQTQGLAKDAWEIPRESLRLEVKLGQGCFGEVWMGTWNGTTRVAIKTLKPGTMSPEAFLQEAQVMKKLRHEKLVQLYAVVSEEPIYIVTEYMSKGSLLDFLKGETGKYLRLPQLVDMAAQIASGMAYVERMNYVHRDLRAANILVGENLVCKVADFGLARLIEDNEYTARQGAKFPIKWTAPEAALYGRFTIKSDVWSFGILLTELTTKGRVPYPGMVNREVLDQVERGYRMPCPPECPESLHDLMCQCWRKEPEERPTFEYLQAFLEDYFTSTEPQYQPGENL
The target in experiment [3] is Transient receptor potential cation channel subfamily M member 6 (Homo sapiens) (UniProt Q9BX84). The experiment is described as follows: Selectivity interaction (Ambit KINOMEscan and KiNATiv profiling in Jurkat cells) EUB0000090b TRPM6. It counts as cell-based. The note with it: at 1 µM.
Chain of Transient receptor potential cation channel subfamily M member 6 (Homo sapiens) (Q9BX84 whole entry): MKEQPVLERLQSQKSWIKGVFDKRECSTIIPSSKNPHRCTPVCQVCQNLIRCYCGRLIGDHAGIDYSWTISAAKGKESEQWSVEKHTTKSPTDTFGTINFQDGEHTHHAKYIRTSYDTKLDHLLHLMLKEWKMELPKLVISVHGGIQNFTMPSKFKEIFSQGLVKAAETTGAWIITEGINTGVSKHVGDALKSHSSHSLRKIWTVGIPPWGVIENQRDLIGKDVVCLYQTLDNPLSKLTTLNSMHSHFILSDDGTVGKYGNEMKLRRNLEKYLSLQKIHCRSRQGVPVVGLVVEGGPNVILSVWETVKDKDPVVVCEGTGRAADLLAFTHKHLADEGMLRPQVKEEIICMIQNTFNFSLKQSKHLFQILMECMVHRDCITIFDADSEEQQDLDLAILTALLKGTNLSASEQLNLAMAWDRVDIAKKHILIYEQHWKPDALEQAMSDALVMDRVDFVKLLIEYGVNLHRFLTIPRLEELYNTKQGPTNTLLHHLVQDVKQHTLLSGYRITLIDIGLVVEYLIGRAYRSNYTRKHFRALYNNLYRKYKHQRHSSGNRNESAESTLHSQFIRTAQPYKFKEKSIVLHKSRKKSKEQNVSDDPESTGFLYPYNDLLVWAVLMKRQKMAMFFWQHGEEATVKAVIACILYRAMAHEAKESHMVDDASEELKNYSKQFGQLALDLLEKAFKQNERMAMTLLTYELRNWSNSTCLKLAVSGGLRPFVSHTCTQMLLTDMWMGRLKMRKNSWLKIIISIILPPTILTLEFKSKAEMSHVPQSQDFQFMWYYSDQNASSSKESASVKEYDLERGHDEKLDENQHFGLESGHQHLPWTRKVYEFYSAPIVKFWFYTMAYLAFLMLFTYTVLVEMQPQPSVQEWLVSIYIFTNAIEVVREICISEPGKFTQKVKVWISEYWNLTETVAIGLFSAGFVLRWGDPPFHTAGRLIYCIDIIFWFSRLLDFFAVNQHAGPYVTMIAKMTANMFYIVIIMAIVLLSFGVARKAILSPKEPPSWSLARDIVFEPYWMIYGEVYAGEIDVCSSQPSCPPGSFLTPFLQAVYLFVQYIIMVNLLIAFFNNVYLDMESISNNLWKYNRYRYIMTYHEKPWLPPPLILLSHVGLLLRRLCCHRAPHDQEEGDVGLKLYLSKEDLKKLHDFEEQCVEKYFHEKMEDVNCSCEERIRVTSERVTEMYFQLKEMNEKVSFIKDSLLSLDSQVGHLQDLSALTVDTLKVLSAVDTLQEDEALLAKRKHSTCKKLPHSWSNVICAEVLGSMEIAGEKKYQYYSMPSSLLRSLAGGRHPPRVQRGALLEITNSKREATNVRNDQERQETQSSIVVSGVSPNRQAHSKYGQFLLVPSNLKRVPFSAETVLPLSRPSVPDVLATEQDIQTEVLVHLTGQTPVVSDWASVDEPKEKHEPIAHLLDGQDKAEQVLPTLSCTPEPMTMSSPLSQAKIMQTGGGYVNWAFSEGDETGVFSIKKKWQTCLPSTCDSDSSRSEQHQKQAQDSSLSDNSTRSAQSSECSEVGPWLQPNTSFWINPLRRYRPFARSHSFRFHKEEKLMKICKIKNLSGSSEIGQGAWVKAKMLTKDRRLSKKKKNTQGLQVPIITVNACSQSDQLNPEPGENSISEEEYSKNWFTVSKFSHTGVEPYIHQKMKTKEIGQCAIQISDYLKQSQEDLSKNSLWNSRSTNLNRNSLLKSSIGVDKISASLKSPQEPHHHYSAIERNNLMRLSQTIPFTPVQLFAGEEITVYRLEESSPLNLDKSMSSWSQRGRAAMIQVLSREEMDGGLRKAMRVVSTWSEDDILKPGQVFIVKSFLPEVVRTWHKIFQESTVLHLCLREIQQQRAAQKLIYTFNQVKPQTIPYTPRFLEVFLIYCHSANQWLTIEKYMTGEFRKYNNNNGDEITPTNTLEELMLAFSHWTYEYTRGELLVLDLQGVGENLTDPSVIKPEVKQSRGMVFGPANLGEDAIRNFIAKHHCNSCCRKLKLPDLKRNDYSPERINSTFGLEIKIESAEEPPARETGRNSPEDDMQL
Experiment [4] concerns the target Histone-lysine N-methyltransferase EZH2 (Homo sapiens) (UniProt Q15910). As to the kind of experiment: Selectivity interaction (Transferase panel (protein, RNA, and DNA methyltransferases. and EP300 (acetyltransferase))) EUB0000270b EZH2.
For experiment [5], the target named is Serine/threonine-protein kinase Nek4 (Homo sapiens) (UniProt P51957). As to the kind of experiment: Selectivity interaction (KinomeScan (DiscoverX)) EUB0000045b NEK4.
Chain of Serine/threonine-protein kinase Nek4 (Homo sapiens) (P51957 whole entry, looked up): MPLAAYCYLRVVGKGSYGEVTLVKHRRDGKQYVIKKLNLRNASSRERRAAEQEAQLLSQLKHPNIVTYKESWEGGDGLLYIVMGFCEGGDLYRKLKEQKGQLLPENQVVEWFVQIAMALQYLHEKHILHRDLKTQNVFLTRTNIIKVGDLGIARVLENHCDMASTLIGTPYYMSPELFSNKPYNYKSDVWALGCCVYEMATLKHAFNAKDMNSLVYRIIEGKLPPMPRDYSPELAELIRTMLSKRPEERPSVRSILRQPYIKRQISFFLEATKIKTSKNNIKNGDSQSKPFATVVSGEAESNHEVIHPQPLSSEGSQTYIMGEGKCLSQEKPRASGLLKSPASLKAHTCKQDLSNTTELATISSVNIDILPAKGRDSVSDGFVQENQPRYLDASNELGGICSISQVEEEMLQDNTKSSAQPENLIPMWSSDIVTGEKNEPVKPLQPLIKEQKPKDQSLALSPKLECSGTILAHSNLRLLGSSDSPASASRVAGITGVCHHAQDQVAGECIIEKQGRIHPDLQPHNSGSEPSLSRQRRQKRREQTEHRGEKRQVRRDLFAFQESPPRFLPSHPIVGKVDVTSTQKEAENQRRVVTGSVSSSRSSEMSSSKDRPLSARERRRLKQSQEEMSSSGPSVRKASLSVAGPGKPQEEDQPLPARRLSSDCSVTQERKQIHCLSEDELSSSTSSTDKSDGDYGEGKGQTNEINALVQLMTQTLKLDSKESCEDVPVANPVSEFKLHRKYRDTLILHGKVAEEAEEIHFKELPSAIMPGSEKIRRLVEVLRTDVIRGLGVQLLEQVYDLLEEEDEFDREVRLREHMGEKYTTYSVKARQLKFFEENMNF
Experiment [6] has as its target NT-3 growth factor receptor (Homo sapiens, UniProt Q16288). The experiment is described as follows: Selectivity interaction (KinomeScan (DiscoverX)) EUB0000045b NTRK3.
Experiment [7] deals with T1, Serine/threonine-protein kinase BRSK2 (Homo sapiens) (UniProt Q8IWQ3).
T1 sequence (whole entry): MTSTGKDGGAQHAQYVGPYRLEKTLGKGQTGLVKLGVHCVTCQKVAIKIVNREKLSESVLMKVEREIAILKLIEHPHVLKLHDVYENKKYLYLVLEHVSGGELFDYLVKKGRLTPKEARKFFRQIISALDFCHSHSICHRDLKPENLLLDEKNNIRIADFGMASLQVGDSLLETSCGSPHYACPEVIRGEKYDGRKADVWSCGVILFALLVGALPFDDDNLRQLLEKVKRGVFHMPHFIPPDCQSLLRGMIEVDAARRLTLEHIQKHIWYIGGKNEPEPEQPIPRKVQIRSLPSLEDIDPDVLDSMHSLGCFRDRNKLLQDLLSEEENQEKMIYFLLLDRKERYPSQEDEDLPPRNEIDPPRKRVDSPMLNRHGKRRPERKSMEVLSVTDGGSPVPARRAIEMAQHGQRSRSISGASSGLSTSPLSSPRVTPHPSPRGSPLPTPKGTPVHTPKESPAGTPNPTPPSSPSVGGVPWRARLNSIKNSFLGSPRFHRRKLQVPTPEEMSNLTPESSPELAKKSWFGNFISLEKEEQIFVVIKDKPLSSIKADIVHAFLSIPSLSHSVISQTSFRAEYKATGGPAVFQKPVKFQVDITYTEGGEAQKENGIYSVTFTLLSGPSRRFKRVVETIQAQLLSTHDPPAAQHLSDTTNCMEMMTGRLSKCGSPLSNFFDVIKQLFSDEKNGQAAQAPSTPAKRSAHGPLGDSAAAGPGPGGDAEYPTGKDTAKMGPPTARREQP
As to the kind of experiment: Selectivity interaction (KinomeScan (DiscoverX)) EUB0000666a BRSK2. Particulars: at 10 µM.

Experiment [8] concerns the target T2, Calcium/calmodulin-dependent protein kinase type IV (Homo sapiens) (UniProt Q16566).
T2 sequence (whole entry): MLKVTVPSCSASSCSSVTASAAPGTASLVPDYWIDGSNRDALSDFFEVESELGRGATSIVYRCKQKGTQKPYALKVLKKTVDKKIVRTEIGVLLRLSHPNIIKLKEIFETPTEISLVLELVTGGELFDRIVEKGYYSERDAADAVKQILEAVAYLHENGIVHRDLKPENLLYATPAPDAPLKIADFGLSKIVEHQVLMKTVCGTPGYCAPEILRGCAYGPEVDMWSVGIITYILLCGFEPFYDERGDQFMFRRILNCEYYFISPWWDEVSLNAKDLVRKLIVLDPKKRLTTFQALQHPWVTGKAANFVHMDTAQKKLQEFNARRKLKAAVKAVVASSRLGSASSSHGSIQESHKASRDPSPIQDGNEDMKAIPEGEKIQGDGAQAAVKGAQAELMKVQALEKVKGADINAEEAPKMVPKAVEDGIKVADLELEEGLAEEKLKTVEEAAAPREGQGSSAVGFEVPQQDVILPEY
The experiment is described as follows: Selectivity interaction (ActivX KiNativ screen (kinase selectivity in THP-1 cell lysates)) EUB0000639a CAMK4. The class given is subcellular. The note with it: lysate.

For experiment [9], the target named is T3, Phosphatidylinositol 4,5-bisphosphate 3-kinase catalytic subunit delta isoform (Homo sapiens) (UniProt O00329).
T3 sequence (whole entry): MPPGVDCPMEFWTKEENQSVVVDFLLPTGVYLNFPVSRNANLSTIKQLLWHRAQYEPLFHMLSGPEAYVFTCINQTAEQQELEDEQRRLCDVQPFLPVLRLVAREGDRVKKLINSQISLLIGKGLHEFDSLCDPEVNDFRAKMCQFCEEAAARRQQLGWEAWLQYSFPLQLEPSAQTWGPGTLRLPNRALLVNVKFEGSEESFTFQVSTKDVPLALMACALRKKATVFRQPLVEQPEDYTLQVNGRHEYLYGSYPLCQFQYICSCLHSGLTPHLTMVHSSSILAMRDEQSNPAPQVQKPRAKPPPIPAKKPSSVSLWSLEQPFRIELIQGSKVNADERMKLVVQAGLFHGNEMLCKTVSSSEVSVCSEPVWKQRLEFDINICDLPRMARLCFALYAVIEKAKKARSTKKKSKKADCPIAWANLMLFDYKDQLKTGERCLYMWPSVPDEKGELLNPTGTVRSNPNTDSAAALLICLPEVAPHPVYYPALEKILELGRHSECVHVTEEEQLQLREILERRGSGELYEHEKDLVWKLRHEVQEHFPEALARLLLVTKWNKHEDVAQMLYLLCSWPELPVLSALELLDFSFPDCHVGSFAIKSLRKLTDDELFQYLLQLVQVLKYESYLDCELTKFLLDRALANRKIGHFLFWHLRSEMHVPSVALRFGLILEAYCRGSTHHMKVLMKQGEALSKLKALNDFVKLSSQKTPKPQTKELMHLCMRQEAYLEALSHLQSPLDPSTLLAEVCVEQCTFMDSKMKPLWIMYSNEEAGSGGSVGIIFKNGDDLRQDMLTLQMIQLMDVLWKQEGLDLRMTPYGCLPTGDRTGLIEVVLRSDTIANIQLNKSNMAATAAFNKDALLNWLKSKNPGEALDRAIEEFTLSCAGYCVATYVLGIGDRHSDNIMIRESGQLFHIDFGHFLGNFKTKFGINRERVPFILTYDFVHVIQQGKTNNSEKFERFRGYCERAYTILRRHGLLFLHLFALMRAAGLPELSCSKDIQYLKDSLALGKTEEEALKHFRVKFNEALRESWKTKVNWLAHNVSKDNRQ
As to the kind of experiment: Selectivity interaction (ActivX KiNativ screen (kinase selectivity in THP-1 cell lysates)) EUB0000639a PIK3CD. The class given is subcellular. Particulars: lysate, at 5 µM.

Chain of Histone-lysine N-methyltransferase EZH2 (Homo sapiens) (Q15910 whole entry, looked up): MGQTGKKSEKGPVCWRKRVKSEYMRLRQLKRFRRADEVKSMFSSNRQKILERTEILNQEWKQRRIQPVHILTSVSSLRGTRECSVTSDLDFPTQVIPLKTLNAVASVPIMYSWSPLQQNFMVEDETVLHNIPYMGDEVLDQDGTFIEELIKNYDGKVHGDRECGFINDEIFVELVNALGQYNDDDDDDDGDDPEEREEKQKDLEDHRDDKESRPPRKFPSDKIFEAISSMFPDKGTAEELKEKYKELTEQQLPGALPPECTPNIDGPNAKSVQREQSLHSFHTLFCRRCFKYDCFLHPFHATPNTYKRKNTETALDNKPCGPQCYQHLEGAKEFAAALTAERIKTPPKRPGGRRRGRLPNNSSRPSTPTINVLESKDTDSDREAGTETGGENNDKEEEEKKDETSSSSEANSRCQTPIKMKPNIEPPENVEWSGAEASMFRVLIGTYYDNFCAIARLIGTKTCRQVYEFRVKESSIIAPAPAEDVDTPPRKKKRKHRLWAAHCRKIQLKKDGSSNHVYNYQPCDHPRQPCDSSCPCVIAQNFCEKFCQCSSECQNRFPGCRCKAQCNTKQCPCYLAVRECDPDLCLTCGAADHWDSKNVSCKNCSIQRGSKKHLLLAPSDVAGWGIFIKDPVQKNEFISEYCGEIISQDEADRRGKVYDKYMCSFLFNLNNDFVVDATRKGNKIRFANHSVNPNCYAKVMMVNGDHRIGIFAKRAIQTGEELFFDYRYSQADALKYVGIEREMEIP
Chain of NT-3 growth factor receptor (Q16288 32-839 limits assumed): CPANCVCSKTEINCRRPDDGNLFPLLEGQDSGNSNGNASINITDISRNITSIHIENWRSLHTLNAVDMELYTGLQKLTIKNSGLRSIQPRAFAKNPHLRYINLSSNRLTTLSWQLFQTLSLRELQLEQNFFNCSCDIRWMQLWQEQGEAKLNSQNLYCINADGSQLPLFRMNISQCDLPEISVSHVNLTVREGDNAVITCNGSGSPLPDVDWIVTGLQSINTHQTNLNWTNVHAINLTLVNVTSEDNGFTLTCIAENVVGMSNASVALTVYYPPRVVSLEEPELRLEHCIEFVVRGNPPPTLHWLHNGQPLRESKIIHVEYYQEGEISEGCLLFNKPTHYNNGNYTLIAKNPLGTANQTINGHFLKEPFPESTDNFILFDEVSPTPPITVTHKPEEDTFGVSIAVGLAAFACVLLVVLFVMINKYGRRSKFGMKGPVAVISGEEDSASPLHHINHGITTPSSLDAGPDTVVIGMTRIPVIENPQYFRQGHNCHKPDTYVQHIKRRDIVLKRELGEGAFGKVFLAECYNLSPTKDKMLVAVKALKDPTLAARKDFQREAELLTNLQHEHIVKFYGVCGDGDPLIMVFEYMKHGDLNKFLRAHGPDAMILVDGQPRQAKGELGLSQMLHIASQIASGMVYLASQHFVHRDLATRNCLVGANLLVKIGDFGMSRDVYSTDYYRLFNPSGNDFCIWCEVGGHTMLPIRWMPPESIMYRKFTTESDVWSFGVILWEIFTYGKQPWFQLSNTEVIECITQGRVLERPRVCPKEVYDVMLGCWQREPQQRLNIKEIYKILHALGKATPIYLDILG

For the compound `Cc1ccc(-c2ccc3c(ccc4sc5c(c43)NC[C@@H](C)NC5=O)n2)cn1`, in experiment [1], the % of inhibition was determined as 0%.
For the compound `CN(C)C/C=C/C(=O)Nc1ccc(C(=O)N2CCCC(Nc3ncc(Cl)c(-c4c[nH]c5ccccc45)n3)C2)cc1` (stereo unspecified), the % of control in experiment [2] worked out at 90%; in experiment [3] it was 88%.
For the compound `Cc1cc(CN)cc(C)c1-c1ncn(C)c1-c1cncn1C`, the figures for the % activity in experiment [4] (at 1 µM) and in experiment [4] (at 10 µM) were more than 90% and more than 80%, respectively.
In the case of `C=CC(=O)Nc1cc(-n2c(=O)ccc3cnc4ccc(-c5ccc(NS(C)(=O)=O)cc5)cc4c32)ccc1C`, the % of control in experiment [5] (at 1 µM) worked out at 81%; in experiment [5] (at 10 µM) it was 100%; in experiment [6] (at 1 µM) it was 100%; in [6] (at 10 µM), 100%.
Compound `O=C(NOC[C@H](O)CO)c1ccc(F)c(F)c1Nc1ccc(I)cc1F` gave a % of control in experiment [7] of 100%.
Consider `CC[C@@H]1[C@H](F)C(=O)N[C@@H]1COc1nccc2cc(C(N)=O)c(OC)cc12` [ZIMLOVISERTIB], for which the % of inhibition in [8] (at 0.01 µM) is 25.8%; in [8] (at 0.04 µM), 19.1%; in [8] (at 0.2 µM) it was -4.7%; in experiment [8] (at 1 µM), 11.2%; in experiment [8] (at 5 µM), 18.6%; in [9], 18.5%.
